Reference: ChEMBL document CHEMBL1201862, “PubChem BioAssay data set” (2004)
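Where inhibition never reached the appropriate level, the endpoint shown equals the highest concentration tested. Otherwise, values were interpolated linearly from a five-concentration, 48-hour dose response in 96-well plates. Abbreviation: GI50, concentration required for 50% inhibition of growth.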 The source made the active and inactive calls. Cut-off read from the data, not from the text of the source: active = GI50 up to about 1.1 µM and inactive = higher.

Key:
Assay in all cases: inhibition of tumour cell growth, NCI panel, 48 h
NCI-H23 = system: NCI-H23
NCI-H226 = system: NCI-H226
IGROV-1 = system: IGROV-1
A549 = system: A549
HOP-62 = system: HOP-62
LOX IMVI = system: LOX IMVI
UACC-62 = system: UACC-62
786-0 = system: 786-0
KM12 = system: KM12
SK-MEL-28 = system: SK-MEL-28
SF-268 = system: SF-268
RXF 393 = system: RXF 393
K562 = system: K562
EKVX = system: EKVX
HOP-92 = system: HOP-92

Measured: GI50

O=C(CSc1nnc(Cc2ccccc2)o1)Nc1ccccc1
inactive: NCI-H23 > 100 µM | NCI-H226 > 100 µM | IGROV-1 > 100 µM | A549 > 100 µM | HOP-62 > 100 µM | LOX IMVI > 100 µM | UACC-62 > 100 µM | 786-0 > 100 µM | KM12 > 100 µM | SK-MEL-28 > 100 µM | SF-268 > 100 µM | RXF 393 > 100 µM | K562 > 100 µM

O=C1Cc2ccccc2CCc2ccccc21
inactive: EKVX 79.6 µM | NCI-H23 74.6 µM | NCI-H226 > 100 µM | IGROV-1 > 100 µM | A549 > 100 µM | HOP-62 > 100 µM | LOX IMVI > 100 µM | UACC-62 > 100 µM | 786-0 > 100 µM | KM12 > 100 µM | SK-MEL-28 > 100 µM | HOP-92 35.6 µM | SF-268 > 100 µM | RXF 393 > 100 µM | K562 75.3 µM

CC1=NN(c2ccccc2)C(=O)/C1=C\c1ccc([N+](=O)[O-])cc1
inactive: EKVX 36.6 µM | NCI-H23 27.9 µM | IGROV-1 29.6 µM | A549 35.4 µM | LOX IMVI 21.1 µM | UACC-62 21.7 µM | 786-0 29.1 µM | KM12 26.4 µM | SK-MEL-28 36.6 µM | SF-268 38.6 µM | RXF 393 19.5 µM | K562 28.6 µM

C=C1CCC2(C(C)=O)COC1(C)O2 (stereo not drawn)
inactive: EKVX > 100 µM | NCI-H23 > 10 µM | NCI-H226 > 100 µM | IGROV-1 > 100 µM | A549 > 100 µM | HOP-62 > 100 µM | LOX IMVI > 100 µM | UACC-62 > 100 µM | 786-0 > 100 µM | KM12 > 100 µM | SK-MEL-28 > 100 µM | RXF 393 > 10 µM | K562 > 100 µM

O=[N+]([O-])c1ccc(-c2ccc(C3=Nn4c(nnc4-c4ccc(Cl)cc4)SC3)o2)cc1
inactive: EKVX > 100 µM | NCI-H23 > 53.2 µM | NCI-H226 > 100 µM | IGROV-1 56 µM | A549 47.1 µM | HOP-62 31 µM | LOX IMVI > 100 µM | UACC-62 > 100 µM | 786-0 31.4 µM | KM12 > 100 µM | SK-MEL-28 > 100 µM | HOP-92 38.5 µM | SF-268 > 100 µM | K562 > 100 µM

NC(=O)CCC(NC(=O)Cc1ccccc1)C(=O)O (stereo not drawn)
inactive: EKVX > 2470 µM | NCI-H23 > 2470 µM | IGROV-1 1610 µM | A549 > 2470 µM | HOP-62 1700 µM | UACC-62 > 2470 µM | 786-0 > 2470 µM | KM12 > 2470 µM | SK-MEL-28 1160 µM | HOP-92 1060 µM | SF-268 1420 µM | RXF 393 531 µM | K562 > 2470 µM

O=c1ncccn1C1C=C(CO)C(O)C1O (stereo not drawn)
inactive: EKVX > 50 µM | NCI-H23 > 50 µM | NCI-H226 > 50 µM | A549 > 50 µM | HOP-62 > 50 µM | LOX IMVI > 50 µM | 786-0 > 50 µM | KM12 > 50 µM | SK-MEL-28 > 50 µM | HOP-92 > 50 µM | SF-268 > 50 µM | K562 > 50 µM

CC1=C(NC(=O)/C(=N/NC(=S)NN)C2C(=O)CC(C)(C)CC2=O)C(=O)c2ccccc2C1=O
inactive: EKVX 15.7 µM | NCI-H23 5.06 µM | NCI-H226 14 µM | IGROV-1 5.21 µM | A549 9.4 µM | HOP-62 16.1 µM | LOX IMVI 3.34 µM | UACC-62 2.49 µM | 786-0 10.9 µM | KM12 7.03 µM | SK-MEL-28 12.9 µM | SF-268 8.18 µM | RXF 393 17.9 µM | K562 10.6 µM

CC(=O)CC(N)=O
inactive: EKVX > 100 µM | NCI-H23 > 100 µM | NCI-H226 > 100 µM | IGROV-1 > 100 µM | A549 > 100 µM | HOP-62 > 100 µM | UACC-62 > 100 µM | 786-0 > 100 µM | KM12 > 100 µM | SK-MEL-28 > 100 µM | HOP-92 > 100 µM | SF-268 > 100 µM | RXF 393 > 100 µM | K562 > 100 µM

O=C1Oc2cc3c(c4cccc1c24)OCN(c1ccccc1)C3
inactive: EKVX > 100 µM | NCI-H23 > 100 µM | IGROV-1 > 100 µM | A549 > 100 µM | HOP-62 > 100 µM | LOX IMVI 43.7 µM | UACC-62 36.5 µM | 786-0 > 100 µM | KM12 > 100 µM | SK-MEL-28 > 100 µM | HOP-92 41.7 µM | SF-268 > 100 µM | RXF 393 > 100 µM | K562 23.2 µM

O=C(c1nc2ccccc2nc1O)C(O)c1ccccc1 (stereo not drawn)
inactive: EKVX 64.6 µM | NCI-H23 > 100 µM | NCI-H226 76.7 µM | IGROV-1 > 100 µM | A549 70.3 µM | HOP-62 > 100 µM | LOX IMVI 39.5 µM | UACC-62 72.4 µM | 786-0 > 100 µM | KM12 54.6 µM | SK-MEL-28 29.8 µM | HOP-92 63.7 µM | SF-268 86.7 µM | K562 40.3 µM

CC(C)CN1CC(C)C(=O)NC1=O (stereo not drawn)
inactive: EKVX > 100 µM | NCI-H23 > 100 µM | NCI-H226 > 100 µM | A549 > 100 µM | HOP-62 > 100 µM | LOX IMVI > 100 µM | UACC-62 > 100 µM | 786-0 > 100 µM | KM12 > 100 µM | SK-MEL-28 > 100 µM | HOP-92 > 100 µM | SF-268 > 100 µM | RXF 393 > 100 µM | K562 > 100 µM

Cc1ccc(/C=C/C(=O)c2sc(-c3nc(C)c(C(=O)/C=C/c4ccc(C)cc4)s3)nc2C)cc1
inactive: EKVX > 100 µM | NCI-H23 > 100 µM | NCI-H226 > 100 µM | IGROV-1 > 100 µM | A549 > 100 µM | HOP-62 > 100 µM | LOX IMVI > 100 µM | UACC-62 > 100 µM | 786-0 > 100 µM | KM12 > 100 µM | SK-MEL-28 > 100 µM | HOP-92 > 100 µM | SF-268 > 100 µM | RXF 393 > 100 µM | K562 > 100 µM

COc1c(CC(C)=O)c2ccccc2n1C(C)=O
inactive: EKVX > 100 µM | NCI-H23 > 100 µM | IGROV-1 > 100 µM | A549 > 100 µM | HOP-62 > 100 µM | UACC-62 > 100 µM | 786-0 > 100 µM | KM12 > 100 µM | SK-MEL-28 > 100 µM | HOP-92 > 100 µM | RXF 393 > 100 µM | K562 > 100 µM

COC1C2c3ccccc3C(C#N)(Cc3ccc4c(c32)OCO4)N1C(=O)c1ccccc1 (stereo not drawn)
inactive: EKVX 45.8 µM | NCI-H23 62.2 µM | NCI-H226 12.5 µM | IGROV-1 13 µM | HOP-62 14.4 µM | LOX IMVI > 100 µM | UACC-62 3.37 µM | 786-0 98.6 µM | KM12 24.9 µM | SK-MEL-28 90.8 µM | HOP-92 > 100 µM | SF-268 > 100 µM | RXF 393 16.3 µM | K562 5.11 µM

CN(CCO)c1nc(N)cc(=O)[nH]1
inactive: EKVX > 100 µM | NCI-H23 > 100 µM | NCI-H226 > 100 µM | IGROV-1 > 100 µM | A549 > 100 µM | HOP-62 > 100 µM | LOX IMVI > 100 µM | UACC-62 > 100 µM | 786-0 > 100 µM | KM12 > 100 µM | SK-MEL-28 > 100 µM | HOP-92 > 100 µM | SF-268 > 100 µM | RXF 393 > 100 µM | K562 > 100 µM

NNC(=O)CCC(=O)Nc1cc(Cl)c(Cl)cc1Cl
inactive: NCI-H23 > 100 µM | NCI-H226 > 100 µM | IGROV-1 > 100 µM | A549 > 100 µM | HOP-62 > 100 µM | LOX IMVI > 100 µM | UACC-62 > 100 µM | 786-0 > 100 µM | KM12 > 100 µM | SK-MEL-28 > 100 µM | HOP-92 > 100 µM | SF-268 > 100 µM | RXF 393 > 100 µM | K562 > 100 µM

Cc1ccc(NC(=O)CC2C(=O)Nc3ccccc3S2(=O)=O)c(C)c1 (stereo not drawn)
inactive: EKVX 42.5 µM | NCI-H23 17.8 µM | NCI-H226 17 µM | IGROV-1 12.4 µM | A549 18.7 µM | LOX IMVI 15 µM | UACC-62 7.26 µM | 786-0 18.3 µM | SK-MEL-28 17 µM | HOP-92 15 µM | SF-268 20.3 µM | RXF 393 17 µM | K562 4.66 µM

O=S(O)CCCCCSSCCCCSSCCCCCS(=O)O
inactive: EKVX > 100 µM | NCI-H23 > 100 µM | IGROV-1 > 100 µM | A549 > 100 µM | HOP-62 > 100 µM | LOX IMVI > 100 µM | UACC-62 > 100 µM | 786-0 > 100 µM | KM12 > 100 µM | SK-MEL-28 > 100 µM | HOP-92 > 100 µM | SF-268 > 100 µM | RXF 393 > 100 µM | K562 48.1 µM

O=C1C(c2ccc(Cl)cc2)=[N+]([O-])c2ccccc21
inactive: EKVX 15.3 µM | NCI-H23 16.1 µM | NCI-H226 19.1 µM | IGROV-1 18.1 µM | A549 17.5 µM | HOP-62 29.4 µM | LOX IMVI 14 µM | UACC-62 18.3 µM | 786-0 16.9 µM | KM12 15.2 µM | SK-MEL-28 14.9 µM | SF-268 15.4 µM | RXF 393 11 µM | K562 13.4 µM
